Laboratory results from article PMC5298005 (Clinical Pharmacology in Drug Development, 2016).
Where two headings read alike, the source gives them in different places. Marks after values point to notes of the source that are not given here.

Columns and labels:
[1] = Treatment-emergent adverse events, cyclosporine study; type: in vivo, human (healthy subjects); conditions: TEAE during isavuconazole‐only administration
[2] = Phase 1 drug-interaction study, prednisone with isavuconazole: pharmacokinetics
[3] = Phase 1 drug-interaction study, sirolimus with isavuconazole: pharmacokinetics; type: in vivo, human (healthy subjects)
[4] = Phase 1 drug-interaction study, tacrolimus with isavuconazole: pharmacokinetics; type: in vivo, human (healthy subjects)
[5] = type: in vivo, human (healthy subjects)
CYP3A4 = conditions: human liver microsomes expressing CYP3A4 in vitro; ref data on file; cited from earlier work
[6] = cited from earlier work
[7] = isavuconazole + cyclosporine vs isavuconazole alone
[8] = both, human, plasma, oral, 200 mg
[9] = isavuconazole + sirolimus vs isavuconazole alone
[10] = isavuconazole + tacrolimus vs isavuconazole alone
[11] = isavuconazole + MMF vs isavuconazole alone
[12] = MPAG after MMF 1 g single oral dose
[13] = MMF + isavuconazole vs MMF alone
[14] = MPA after MMF 1 g single oral dose
[15] = both, human, in vivo, po, 20 mg
[16] = prednisolone after prednisone 20 mg single oral dose
[17] = prednisone + isavuconazole vs prednisone alone
[18] = both, human, whole blood, po, 2 mg
[19] = sirolimus 2 mg single oral dose
[20] = both, human, whole blood, po, 5 mg
[21] = tacrolimus 5 mg single oral dose
[22] = tacrolimus + isavuconazole vs tacrolimus alone

C[C@@H](c1nc(-c2ccc(C#N)cc2)cs1)[C@](O)(Cn1cncn1)c1cc(F)ccc1F [Isavuconazole, isavuconazole]
blood creatinine ([1]; 1 subject, day 15, 0.9 mg/dL on day –1): 1.4 mg/dL | blood creatinine ([1]; second subject, by day 14, baseline 1.3 mg/dL): 1.4 mg/dL | AUC ([2]; both, human, in vivo, 200 mg): 88200 ng·h/mL | Cmax ([2]; both, human, in vivo, 200 mg): 5600 ng/mL | Tmax ([2]; both, human, in vivo, 200 mg): 2 h | AUC (both, human, in vivo, 200 mg): 108000 ng·h/mL | Cmax (both, human, in vivo, 200 mg): 5700 ng/mL | AUCτ, Geometric Least‐Squares Mean, % (90%CI) [7]: 103 (100, 106) % | Cmax, Geometric Least‐Squares Mean, % (90%CI) [7]: 130 (121, 139) % | AUC [3, 8]: 92000 ng·h/mL | Tmax [3, 8]: 2 h | mean AUCτ of isavuconazole higher in the presence of sirolimus ([3]; in vivo): 11% | mean Cmax of isavuconazole higher in the presence of sirolimus ([3]; in vivo): 4% | AUCτ, Geometric Least‐Squares Mean, % (90%CI) [3, 9]: 111 (109, 114) % | Cmax, Geometric Least‐Squares Mean, % (90%CI) [3, 9]: 104 (100, 108) % | AUC [4, 8]: 89800 ng·h/mL | Cmax [4, 8]: 4900 ng/mL | mean AUCτ of isavuconazole higher in the presence of tacrolimus ([4]; in vivo): 12% | mean Cmax of isavuconazole higher in the presence of tacrolimus ([4]; in vivo): 26% | AUCτ, Geometric Least‐Squares Mean, % (90%CI) [4, 10]: 112 (110, 115) % | Cmax, Geometric Least‐Squares Mean, % (90%CI) [4, 10]: 126 (118, 134) % | AUCτ ([5]; MMF study, isavuconazole 200 mg QD alone, plasma, n = 22, arithmetic mean (SD)): 101.4 (37.6) μg·h/mL | Cmax [5, 8]: 6500 ng/mL | change of mean AUCτ of isavuconazole by coadministration with MMF ([5]; in vivo): unchanged | mean Cmax of isavuconazole increased by coadministration with MMF ([5]; in vivo): 4% | AUCτ, Geometric Least‐Squares Mean, % (90%CI) [5, 11]: 101 (98, 103) % | Cmax, Geometric Least‐Squares Mean, % (90%CI) [5, 11]: 104 (100, 107) % | isavuconazole metabolized (CYP3A4): 66.2%

CCC(C)n1ncn(-c2ccc(N3CCN(c4ccc(OCC5COC(Cn6cncn6)(c6ccc(Cl)cc6Cl)O5)cc4)CC3)cc2)c1=O (stereo not drawn) [Itraconazole, itraconazole]
Fold increase in trough concentrations of cyclosporine ([6]; cyclosporine coadministered with itraconazole): ↑ 2.7 ^b ^,13 fold | Fold increase in trough concentrations of tacrolimus ([6]; tacrolimus coadministered with itraconazole): ↑ 5.6 ^b ^,13 fold

COc1c(C)c2c(c(O[C@@H]3O[C@H](C(=O)O)[C@@H](O)[C@H](O)[C@H]3O)c1C/C=C(\C)CCC(=O)O)C(=O)OC2 [MPAG, mycophenolic acid phenyl glucuronide]
AUC0–∞ lower in the presence vs absence of isavuconazole [5, 12]: 24% | AUClast lower in the presence vs absence of isavuconazole [5, 12]: 27% | Cmax lower in the presence vs absence of isavuconazole [5, 12]: 32%

COc1c(C)c2c(c(O)c1C/C=C(\C)CCC(=O)O)C(=O)OC2 [Mycophenolic Acid, mycophenolic acid]
CL/F ([5]; MMF 1 g single oral dose alone, plasma, n = 24, arithmetic mean (SD)): 11.5 (3.4) L/h | AUC0–∞, Geometric Least‐Squares Mean Ratio, % (90%CI) [5, 13]: 135 (127, 145) % | AUClast, Geometric Least‐Squares Mean Ratio, % (90%CI) [5, 13]: 132 (124, 141) % | Cmax, Geometric Least‐Squares Mean Ratio, % (90%CI) [5, 13]: 89 (76, 103) % | Cmax lower in the presence vs absence of isavuconazole [5, 14]: 11% | Mean AUC0–∞ higher in the presence vs absence of isavuconazole [5, 14]: 35% | Mean AUClast higher in the presence vs absence of isavuconazole [5, 14]: 32% | Tmax ([5]; both, human, plasma, po, 1 g): 0.5 h | half-life ([5]; both, human, plasma, po, 1 g): 12.6 h

CC[C@@H]([C@H](C)O)n1ncn(-c2ccc(N3CCN(c4ccc(OC[C@@H]5CO[C@@](Cn6cncn6)(c6ccc(F)cc6F)C5)cc4)CC3)cc2)c1=O [Posaconazole, posaconazole]
Fold increase in area under the plasma concentration‐time curve of sirolimus ([6]; sirolimus coadministered with posaconazole): ↑ 7.9 ^a ^,14 fold | Fold increase in area under the plasma concentration‐time curve of tacrolimus ([6]; tacrolimus coadministered with posaconazole): ↑ 3.6 ^a ^,14 fold

C[C@]12C=CC(=O)C=C1CC[C@@H]1[C@@H]2[C@@H](O)C[C@@]2(C)[C@H]1CC[C@]2(O)C(=O)CO [Prednisolone, prednisolone]
AUC(0-inf) [2, 15]: 1650 ng·h/mL | AUC(0-t) [2, 15]: 1640 ng·h/mL | Cmax [2, 15]: 295 ng/mL | Tmax [2, 15]: 1.5 h | half-life [2, 15]: 2.9 h | Cmax lower in the presence vs absence of isavuconazole [2, 16]: 4% | Mean AUC0–∞ higher in the presence vs absence of isavuconazole [2, 16]: 8% | Mean AUClast higher in the presence vs absence of isavuconazole [2, 16]: 8% | AUC0–∞, Geometric Least‐Squares Mean Ratio, % (90%CI) [2, 17]: 108 (102, 114) % | AUClast, Geometric Least‐Squares Mean Ratio, % (90%CI) [2, 17]: 108 (102, 114) % | Cmax, Geometric Least‐Squares Mean Ratio, % (90%CI) [2, 17]: 96 (90, 102) %

CO[C@H]1C[C@@H]2CC[C@@H](C)[C@@](O)(O2)C(=O)C(=O)N2CCCC[C@H]2C(=O)O[C@H]([C@H](C)C[C@@H]2CC[C@@H](O)[C@H](OC)C2)CC(=O)[C@H](C)/C=C(\C)[C@@H](O)[C@@H](OC)C(=O)[C@H](C)C[C@H](C)/C=C/C=C/C=C/1C [Sirolimus, sirolimus]
AUC(0-inf) [3, 18]: 196 ng·h/mL | AUC(0-t) [3, 18]: 152 ng·h/mL | Cmax [3, 18]: 5.1 ng/mL | half-life [3, 18]: 74.8 h | Mean AUC0–∞ higher in the presence vs absence of isavuconazole [3, 19]: 84% | Mean AUClast higher in the presence vs absence of isavuconazole [3, 19]: 108% | Mean Cmax higher in the presence vs absence of isavuconazole [3, 19]: 65%

C=CC[C@@H]1/C=C(\C)C[C@H](C)C[C@H](OC)[C@H]2O[C@@](O)(C(=O)C(=O)N3CCCC[C@H]3C(=O)O[C@H](/C(C)=C/[C@@H]3CC[C@@H](O)[C@H](OC)C3)[C@H](C)[C@@H](O)CC1=O)[C@H](C)C[C@@H]2OC [Tacrolimus, tacrolimus]
AUC(0-inf) [4, 20]: 313 ng·h/mL | AUC(0-t) [4, 20]: 304 ng·h/mL | Cmax [4, 20]: 26.7 ng/mL | Mean AUC0–∞ higher in the presence vs absence of isavuconazole [4, 21]: 125% | Mean AUClast higher in the presence vs absence of isavuconazole [4, 21]: 127% | Mean Cmax higher in the presence vs absence of isavuconazole [4, 21]: 42% | AUC0–∞, Geometric Least‐Squares Mean Ratio, % (90%CI) [4, 22]: 225 (191, 266) % | AUClast, Geometric Least‐Squares Mean Ratio, % (90%CI) [4, 22]: 227 (192, 268) % | Cmax, Geometric Least‐Squares Mean Ratio, % (90%CI) [4, 22]: 142 (122, 164) %

C[C@@H](c1ncncc1F)[C@](O)(Cn1cncn1)c1ccc(F)cc1F [Voriconazole, voriconazole]
Fold increase in area under the plasma concentration‐time curve of cyclosporine ([6]; cyclosporine coadministered with voriconazole): ↑ 1.7 ^a ^,7 fold | Fold increase in area under the plasma concentration‐time curve of sirolimus ([6]; sirolimus coadministered with voriconazole): ↑ 11 ^a ^,7 fold | Fold increase in area under the plasma concentration‐time curve of tacrolimus ([6]; tacrolimus coadministered with voriconazole): ↑ 3 ^a ^,7 fold | effect of coadministration on MPA AUC ([6]; voriconazole coadministration, ref VFEND package insert): no significant effect
